Data as given in paper PMC5218480 (PLoS ONE, 2017).

Test system: MV-4-11 cells
Test: Gene expression microarray analysis (Affymetrix PrimeView) and GSEA
Type: cell-based, human
Set-up: RFU PODN (11730768_x_at) / Fold change /veh PODN (11730768_x_at) / RFU LINC00158 (11744669_a_at) / Fold change /veh LINC00158 (11744669_a_at) / RFU DUSP10 (11751237_a_at) / Fold change /veh DUSP10 (11751237_a_at) / RFU ID3 (11757404_x_at) / Fold change /veh ID3 (11757404_x_at) / RFU PLEKHG5 (11737974_s_at) / Fold change /veh PLEKHG5 (11737974_s_at) / RFU LRRC4B (11730491_at) / Fold change /veh LRRC4B (11730491_at) / RFU GIMAP4 (11747438_a_at) / Fold change /veh GIMAP4 (11747438_a_at) / RFU KRT8 (11758183_x_at) / Fold change /veh KRT8 (11758183_x_at) / RFU CNN1 (11734310_a_at) / Fold change /veh CNN1 (11734310_a_at) / RFU VPS37D (11726825_at) / Fold change /veh VPS37D (11726825_at) / RFU C10orf10 (11716522_x_at) / Fold change /veh C10orf10 (11716522_x_at) / RFU KIR2DL2 /// KIR2DL4 /// KIR2DL5A /// KIR2DL5B /// KIR2DS1 /// KIR2DS2 /// KIR2DS3 /// KIR2DS4 /// KIR3DL3 /// KIR3DL3 /// KIR3DS1 (11738374_at) / Fold change /veh KIR2DL2 /// KIR2DL4 /// KIR2DL5A /// KIR2DL5B /// KIR2DS1 /// KIR2DS2 /// KIR2DS3 /// KIR2DS4 /// KIR3DL3 /// KIR3DL3 /// KIR3DS1 (11738374_at) / RFU C1QL1 (11718748_at) / Fold change /veh C1QL1 (11718748_at) / RFU TMPRSS4 (11747572_a_at) / Fold change /veh TMPRSS4 (11747572_a_at) / RFU HAMP (11756126_x_at) / Fold change /veh HAMP (11756126_x_at) / RFU RNFT2 (11725882_a_at) / Fold change /veh RNFT2 (11725882_a_at) / RFU NR4A2 (11747474_a_at) / Fold change /veh NR4A2 (11747474_a_at) / RFU ABCC12 (11746883_a_at) / Fold change /veh ABCC12 (11746883_a_at) / RFU TMEM136 (11760407_x_at) / Fold change /veh TMEM136 (11760407_x_at) / RFU CLDN22 /// WWC2 (11732394_at) / Fold change /veh CLDN22 /// WWC2 (11732394_at) / RFU HLA-DPB1 (11760878_x_at) / Fold change /veh HLA-DPB1 (11760878_x_at) / RFU SPINT1 (11716480_a_at) / Fold change /veh SPINT1 (11716480_a_at) / RFU GAP43 (11754022_s_at) / Fold change /veh GAP43 (11754022_s_at) / RFU A4GNT (11735810_at) / Fold change /veh A4GNT (11735810_at) / RFU PRB3 (11715151_x_at) / Fold change /veh PRB3 (11715151_x_at) / RFU TUBB4B (11761932_at) / Fold change /veh TUBB4B (11761932_at) / RFU CAPN14 (11732068_a_at) / Fold change /veh CAPN14 (11732068_a_at) / RFU TMCC2 (11721928_a_at) / Fold change /veh TMCC2 (11721928_a_at) / RFU IRGQ (11745062_a_at) / Fold change /veh IRGQ (11745062_a_at) / RFU FAM174B (11720279_a_at) / Fold change /veh FAM174B (11720279_a_at) / RFU TMPRSS4 (11748680_a_at) / Fold change /veh TMPRSS4 (11748680_a_at) / RFU FAM212B (11763350_a_at) / Fold change /veh FAM212B (11763350_a_at) / RFU PLEKHG5 (11743358_a_at) / Fold change /veh PLEKHG5 (11743358_a_at) / RFU ZSCAN30 (11745921_a_at) / Fold change /veh ZSCAN30 (11745921_a_at) / RFU CMKLR1 (11741424_a_at) / Fold change /veh CMKLR1 (11741424_a_at) / RFU LOC101060620 /// MAPK8IP1 (11723275_at) / Fold change /veh LOC101060620 /// MAPK8IP1 (11723275_at) / RFU SPTSSB (11747773_x_at) / Fold change /veh SPTSSB (11747773_x_at) / RFU PRSS12 (11739890_at) / Fold change /veh PRSS12 (11739890_at) / RFU BIN1 (11741810_x_at) / Fold change /veh BIN1 (11741810_x_at) / RFU WNT11 (11732464_a_at) / Fold change /veh WNT11 (11732464_a_at) / RFU C10orf10 (11716521_a_at) / Fold change /veh C10orf10 (11716521_a_at) / RFU C5orf56 (11738089_at) / Fold change /veh C5orf56 (11738089_at) / RFU CYB561 (11721691_x_at) / Fold change /veh CYB561 (11721691_x_at) / RFU ANKRD19P (11752326_a_at) / Fold change /veh ANKRD19P (11752326_a_at) / RFU OR2T12 /// OR2T33 /// OR2T8 (11738714_s_at) / Fold change /veh OR2T12 /// OR2T33 /// OR2T8 (11738714_s_at) / RFU VCAN (11748164_a_at) / Fold change /veh VCAN (11748164_a_at) / RFU JSRP1 (11732532_at) / Fold change /veh JSRP1 (11732532_at) / RFU KRTAP10-11 (11738290_x_at) / Fold change /veh KRTAP10-11 (11738290_x_at) / RFU MYO3A (11730013_a_at) / Fold change /veh MYO3A (11730013_a_at) / RFU EBF3 (11725865_a_at) / Fold change /veh EBF3 (11725865_a_at) / RFU CAMK2N1 (11719241_x_at) / Fold change /veh CAMK2N1 (11719241_x_at) / RFU C5orf56 (11738088_a_at) / Fold change /veh C5orf56 (11738088_a_at) / RFU OLFML3 (11715873_a_at) / Fold change /veh OLFML3 (11715873_a_at) / RFU LOC100653217 /// NTM (11731650_a_at) / Fold change /veh LOC100653217 /// NTM (11731650_a_at) / RFU MAPK11 (11762145_a_at) / Fold change /veh MAPK11 (11762145_a_at) / RFU FIZ1 (11724087_x_at) / Fold change /veh FIZ1 (11724087_x_at) / RFU OASL (11726364_x_at) / Fold change /veh OASL (11726364_x_at) / RFU SOX15 (11748057_x_at) / Fold change /veh SOX15 (11748057_x_at) / RFU CD79A (11719716_a_at) / Fold change /veh CD79A (11719716_a_at) / RFU HIST1H1D (11736915_at) / Fold change /veh HIST1H1D (11736915_at) / RFU CASKIN2 (11723855_a_at) / Fold change /veh CASKIN2 (11723855_a_at) / RFU LOC730098 (11760151_x_at) / Fold change /veh LOC730098 (11760151_x_at) / RFU OR4N2 (11742367_at) / Fold change /veh OR4N2 (11742367_at) / RFU PRRT2 (11749266_a_at) / Fold change /veh PRRT2 (11749266_a_at) / RFU SNX32 (11753110_a_at) / Fold change /veh SNX32 (11753110_a_at) / RFU CDHR5 (11726645_a_at) / Fold change /veh CDHR5 (11726645_a_at) / RFU RCAN1 (11760418_a_at) / Fold change /veh RCAN1 (11760418_a_at) / RFU FAM167A (11723789_a_at) / Fold change /veh FAM167A (11723789_a_at) / RFU FAM26E (11764081_at) / Fold change /veh FAM26E (11764081_at) / RFU ISYNA1 (11749810_s_at) / Fold change /veh ISYNA1 (11749810_s_at) / RFU ACY1 (11761880_at) / Fold change /veh ACY1 (11761880_at) / RFU 11764098_at / Fold change /veh 11764098_at / RFU SAMD14 (11745864_x_at) / Fold change /veh SAMD14 (11745864_x_at) / RFU NPB (11741838_a_at) / Fold change /veh NPB (11741838_a_at) / RFU TMPRSS6 (11731388_a_at) / Fold change /veh TMPRSS6 (11731388_a_at) / RFU KRTAP10-2 (11738614_at) / Fold change /veh KRTAP10-2 (11738614_at) / RFU ARHGAP8 /// PRR5-ARHGAP8 (11727945_x_at) / Fold change /veh ARHGAP8 /// PRR5-ARHGAP8 (11727945_x_at) / RFU KRTAP5-7 /// NADSYN1 (11734609_at) / Fold change /veh KRTAP5-7 /// NADSYN1 (11734609_at) / RFU RASL12 (11751679_a_at) / Fold change /veh RASL12 (11751679_a_at) / RFU CDKN2B (11736163_a_at) / Fold change /veh CDKN2B (11736163_a_at) / RFU PRF1 (11729649_at) / Fold change /veh PRF1 (11729649_at) / RFU, ZNF638 /// ZNF638-IT1 / Fold change vs veh, ZNF638 /// ZNF638-IT1 / RFU, PANK3 / Fold change vs veh, PANK3 / RFU, SH3YL1 / Fold change vs veh, SH3YL1 / RFU, ZEB2 / Fold change vs veh, ZEB2 / RFU, NRIP1 / Fold change vs veh, NRIP1 / RFU, PTTG1IP / Fold change vs veh, PTTG1IP / RFU, CAPN2 / Fold change vs veh, CAPN2 / RFU, MED14 / Fold change vs veh, MED14 / RFU, SNORA58 / Fold change vs veh, SNORA58 / RFU, C1orf63 / Fold change vs veh, C1orf63 / RFU, LRRFIP1 / Fold change vs veh, LRRFIP1 / RFU, NDUFAF7 / Fold change vs veh, NDUFAF7 / RFU, SLC12A2 / Fold change vs veh, SLC12A2 / RFU, IBTK / Fold change vs veh, IBTK / RFU, ESF1 / Fold change vs veh, ESF1 / Fold change vs veh, TMEM50B / RFU, TAOK1 / Fold change vs veh, TAOK1 / RFU, ACBD3 / Fold change vs veh, ACBD3 / RFU, TMA16 / Fold change vs veh, TMA16 / RFU, RWDD3 / Fold change vs veh, RWDD3 / RFU, BCAT1 / Fold change vs veh, BCAT1 / RFU, EDEM3 / Fold change vs veh, EDEM3 / RFU, TMEM33 / Fold change vs veh, TMEM33 / RFU, WDR75 / Fold change vs veh, WDR75 / RFU, AHCTF1 / Fold change vs veh, AHCTF1 / RFU, TFRC / Fold change vs veh, TFRC / RFU, ZDHHC17 / Fold change vs veh, ZDHHC17 / RFU, NOM1 / Fold change vs veh, NOM1 / RFU, ARL8B / Fold change vs veh, ARL8B / RFU, ZBTB11 / Fold change vs veh, ZBTB11 / RFU, TAMM41 / Fold change vs veh, TAMM41 / RFU, KIAA1704 /// LOC100996395 / Fold change vs veh, KIAA1704 /// LOC100996395 / RFU, ING1 / Fold change vs veh, ING1 / RFU, TRMT61B / Fold change vs veh, TRMT61B / RFU, FUBP3 / Fold change vs veh, FUBP3 / RFU, TP53 / Fold change vs veh, TP53 / RFU, TNKS2 / Fold change vs veh, TNKS2 / RFU, ZFP14 / Fold change vs veh, ZFP14 / RFU, ACTR2 / Fold change vs veh, ACTR2 / RFU, PPP3R1 / Fold change vs veh, PPP3R1 / RFU, PIK3R1 / Fold change vs veh, PIK3R1 / RFU, HNRNPA1 / Fold change vs veh, HNRNPA1 / RFU, RNF170 / Fold change vs veh, RNF170 / RFU, ZNF28 / Fold change vs veh, ZNF28 / RFU, RNGTT / Fold change vs veh, RNGTT / RFU, OGT / Fold change vs veh, OGT / RFU, BRD1 / Fold change vs veh, BRD1 / RFU, MARS / Fold change vs veh, MARS / RFU, ZNF655 / Fold change vs veh, ZNF655 / RFU, FAHD1 / Fold change vs veh, FAHD1 / RFU, BDP1 / Fold change vs veh, BDP1 / RFU, LRRCC1 / Fold change vs veh, LRRCC1 / RFU, ARID1A / Fold change vs veh, ARID1A / RFU, ZNF146 / Fold change vs veh, ZNF146 / RFU, ZNF330 / Fold change vs veh, ZNF330 / RFU, GPN3 / Fold change vs veh, GPN3 / RFU, C9orf123 / Fold change vs veh, C9orf123 / RFU, N4BP2L2 / Fold change vs veh, N4BP2L2 / RFU, ARFIP1 / Fold change vs veh, ARFIP1 / RFU, FAM179B / Fold change vs veh, FAM179B / RFU, BCL10 / Fold change vs veh, BCL10 / RFU, UHRF1BP1L / Fold change vs veh, UHRF1BP1L / RFU, BET1 / Fold change vs veh, BET1 / RFU, CNOT2 / Fold change vs veh, CNOT2 / RFU, ZNF268 / Fold change vs veh, ZNF268 / Fold change vs veh, ZNF507 / RFU, DGCR2 / Fold change vs veh, DGCR2 / RFU, WDSUB1 / Fold change vs veh, WDSUB1 / Fold change vs veh, HSP90B1 /// MIR3652 / RFU, ADSS / Fold change vs veh, ADSS / RFU, GK / Fold change vs veh, GK / RFU, ZNF148 / Fold change vs veh, ZNF148 / RFU, TAF9 / Fold change vs veh, TAF9 / RFU, SLC1A5 / Fold change vs veh, SLC1A5 / RFU, SLMO2 / Fold change vs veh, SLMO2 / RFU, ABCC4 / Fold change vs veh, ABCC4 / RFU, LOC101060439 /// RAP1B / Fold change vs veh, LOC101060439 /// RAP1B / RFU, RFX7 / Fold change vs veh, RFX7 / RFU, GTPBP10 / Fold change vs veh, GTPBP10 / RFU, CNEP1R1 / Fold change vs veh, CNEP1R1 / RFU, BIVM-ERCC5 /// ERCC5 / Fold change vs veh, BIVM-ERCC5 /// ERCC5 / RFU, ILF3 / Fold change vs veh, ILF3 / RFU 11762660_at / Fold change /veh 11762660_at / RFU VCAN (11757783_s_at) / Fold change /veh VCAN (11757783_s_at) / RFU DDX43 (11728927_at) / Fold change /veh DDX43 (11728927_at) / RFU KRT8 (11758188_x_at) / Fold change /veh KRT8 (11758188_x_at) / RFU NKD1 (11759106_at) / Fold change /veh NKD1 (11759106_at) / RFU SRD5A1 (11742802_a_at) / Fold change /veh SRD5A1 (11742802_a_at) / RFU TPSAB1 /// TPSB2 (11721975_s_at) / Fold change /veh TPSAB1 /// TPSB2 (11721975_s_at) / RFU GSTM3 (11746129_a_at) / Fold change /veh GSTM3 (11746129_a_at) / RFU IL23R (11737362_x_at) / Fold change /veh IL23R (11737362_x_at) / RFU TMEM51 (11727254_a_at) / Fold change /veh TMEM51 (11727254_a_at) / RFU PIWIL2 (11732686_x_at) / Fold change /veh PIWIL2 (11732686_x_at) / RFU ORM1 (11744905_x_at) / Fold change /veh ORM1 (11744905_x_at) / RFU CCDC152 (11743942_at) / Fold change /veh CCDC152 (11743942_at) / RFU ECM1 (11717891_a_at) / Fold change /veh ECM1 (11717891_a_at) / RFU IL23R (11748794_a_at) / Fold change /veh IL23R (11748794_a_at) / RFU TNFAIP8L3 (11732012_x_at) / Fold change /veh TNFAIP8L3 (11732012_x_at) / RFU MBOAT4 (11741988_at) / Fold change /veh MBOAT4 (11741988_at) / RFU 11764193_at / Fold change /veh 11764193_at / RFU TMEM53 (11763286_at) / Fold change /veh TMEM53 (11763286_at) / RFU MAGEB2 (11727129_at) / Fold change /veh MAGEB2 (11727129_at) / RFU TMEM200A (11744735_a_at) / Fold change /veh TMEM200A (11744735_a_at) / RFU CCDC152 (11751479_a_at) / Fold change /veh CCDC152 (11751479_a_at) / RFU FAM211A (11726209_a_at) / Fold change /veh FAM211A (11726209_a_at) / RFU RGS16 (11746705_a_at) / Fold change /veh RGS16 (11746705_a_at) / RFU VCAN (11755009_s_at) / Fold change /veh VCAN (11755009_s_at) / RFU RHOB (11743442_s_at) / Fold change /veh RHOB (11743442_s_at) / RFU RGS16 (11720943_a_at) / Fold change /veh RGS16 (11720943_a_at) / RFU RGS16 (11720944_at) / Fold change /veh RGS16 (11720944_at) / RFU, VPS4B / Fold change vs veh, VPS4B / RFU, CREB1 / Fold change vs veh, CREB1 / RFU, DNAJC13 / Fold change vs veh, DNAJC13 / RFU, GNAQ / Fold change vs veh, GNAQ / RFU, CDK5R1 / Fold change vs veh, CDK5R1 / RFU, ZRANB3 / Fold change vs veh, ZRANB3 / RFU, CUL4A / Fold change vs veh, CUL4A / RFU, CCNY / Fold change vs veh, CCNY / RFU, UFL1 / Fold change vs veh, UFL1 / RFU, COG3 / Fold change vs veh, COG3 / RFU, DIAPH2 / Fold change vs veh, DIAPH2 / RFU, SKA2 / Fold change vs veh, SKA2 / RFU, AFF3 / Fold change vs veh, AFF3 / RFU, LMF1 / Fold change vs veh, LMF1 / RFU, IPO11 / Fold change vs veh, IPO11 / RFU, DFFB / Fold change vs veh, DFFB / RFU, FOXP1 / Fold change vs veh, FOXP1 / RFU, CARD8 / Fold change vs veh, CARD8 / RFU, STRN3 / Fold change vs veh, STRN3 / RFU, ADK / Fold change vs veh, ADK / RFU, RASSF2 / Fold change vs veh, RASSF2 / RFU, WIPF1 / Fold change vs veh, WIPF1 / RFU, LARP1B / Fold change vs veh, LARP1B / RFU, RASA1 / Fold change vs veh, RASA1 / RFU, RB1 / Fold change vs veh, RB1 / RFU, PPFIA1 / Fold change vs veh, PPFIA1 / RFU, MAT2A / Fold change vs veh, MAT2A / RFU, CCT5 / Fold change vs veh, CCT5 / RFU, WDR92 / Fold change vs veh, WDR92 / RFU, CUX1 / Fold change vs veh, CUX1 / RFU, TTC7A / Fold change vs veh, TTC7A / RFU, TMEM135 / Fold change vs veh, TMEM135 / RFU, DEPTOR / Fold change vs veh, DEPTOR / RFU, CPM / Fold change vs veh, CPM / RFU, DNAJB6 / Fold change vs veh, DNAJB6 / RFU, CACNA2D3 / Fold change vs veh, CACNA2D3 / RFU, DTX4 / Fold change vs veh, DTX4 / RFU, TFCP2 / Fold change vs veh, TFCP2 / RFU, GMCL1 /// GMCL1P1 / Fold change vs veh, GMCL1 /// GMCL1P1 / RFU, AEBP2 / Fold change vs veh, AEBP2 / RFU, SNHG1 /// SNORD22 /// SNORD25 /// SNORD26 /// SNORD27 /// SNORD28 /// SNORD29 /// SNORD31 / Fold change vs veh, SNHG1 /// SNORD22 /// SNORD25 /// SNORD26 /// SNORD27 /// SNORD28 /// SNORD29 /// SNORD31 / Fold change (Aza/veh), C12orf56 (ProbeSet 11735607_a_at) / Fold change (ACY-1035/veh), C12orf56 (ProbeSet 11735607_a_at) / Fold change (Aza/veh), FGFR1OP (ProbeSet 11751329_s_at) / Fold change (ACY-1035/veh), FGFR1OP (ProbeSet 11751329_s_at) / Fold change (Aza/veh), VPS36 (ProbeSet 11739960_a_at) / Fold change (ACY-1035/veh), VPS36 (ProbeSet 11739960_a_at) / RFU SYPL1 (11715823_x_at) / Fold change /veh SYPL1 (11715823_x_at) / RFU IGFBP7 (11715501_s_at) / Fold change /veh IGFBP7 (11715501_s_at) / RFU REEP3 (11722064_at) / Fold change /veh REEP3 (11722064_at) / RFU IGLL1 (11728026_x_at) / Fold change /veh IGLL1 (11728026_x_at): dose or concentration left out as unconfirmed
Settings: MV-4-11 cells, 48 hours

Nc1ccc(-c2cccs2)cc1NC(=O)c1ccc2c(c1)cc(C1CC1)n2CCN1CCOCC1 [ACY-1035]
Fold change /veh OLFML3 (11715873_a_at): 1.17
